# What was measured:
# Test in all cases: MIC, CLSI broth microdilution, Test Example 1
# Assay type in all cases: cell-based
# [1] = system: P. aeruginosa SR27060; details: IMP-1 MBL producing strain (carbapenem resistance strain), cation-adjusted Mueller Hinton broth containing human apo-transferrin, 5×10^5 cfu/mL; for MIC: Pseudomonas aeruginosa, SR27060, read-out: Minimum Inhibitory Concentration (MIC) P. aeruginosa SR27060
# Experimental: (§1) Measurement of Minimum Inhibitory Concentration (MIC: μg/mL) was conducted according to CLSI (Clinical and Laboratory Standards Institute) method, and the amount of bacteria for inoculation was 5×10^5 cfu/mL, and cation-adjusted Mueller Hinton broth containing human apo-transferrin was used as a test medium, and the experiment was conducted using broth microdilution method. The bacteria used are listed below.
# [2] = system: K. pneumoniae ATCCBAA-1705; details: KPC-2 carbapenemase producing strain, cation-adjusted Mueller Hinton broth containing human apo-transferrin, 5×10^5 cfu/mL; for MIC: Klebsiella pneumoniae, ATCCBAA1705, read-out: Minimum Inhibitory Concentration (MIC) K. pneumoniae ATCCBAA-1705
# Experimental: as §1
# [3] = system: E. coli ATCCBAA-200; details: SHV-4 ESBL producing strain, cation-adjusted Mueller Hinton broth containing human apo-transferrin, 5×10^5 cfu/mL; for MIC: Escherichia coli, ATCCBAA200, read-out: Minimum Inhibitory Concentration (MIC) E. coli ATCC BAA-200
# Experimental: as §1
# [4] = system: E. coli ATCCBAA-199; details: SHV-3 ESBL producing strain, cation-adjusted Mueller Hinton broth containing human apo-transferrin, 5×10^5 cfu/mL; for MIC: Escherichia coli, ATCCBAA199, read-out: Minimum Inhibitory Concentration (MIC) E. coli ATCC BAA-199
# Experimental: as §1
# [5] = system: P. aeruginosa SR24837; details: PER-1 ESBL producing strain, cation-adjusted Mueller Hinton broth containing human apo-transferrin, 5×10^5 cfu/mL; for MIC: Pseudomonas aeruginosa, SR24837, read-out: Minimum Inhibitory Concentration (MIC) P. aeruginosa SR24837
# Experimental: as §1
# [6] = system: A. baumannii SR27323; details: OXA-23, OXA-58 carbapenemase producing strain, cation-adjusted Mueller Hinton broth containing human apo-transferrin, 5×10^5 cfu/mL; for MIC: Acinetobacter baumannii, SR27323, read-out: Minimum Inhibitory Concentration (MIC) A. baumannii SR27323
# Experimental: as §1
# [7] = system: P. aeruginosa SR24; details: Ceftazidime resistance strain, cation-adjusted Mueller Hinton broth containing human apo-transferrin, 5×10^5 cfu/mL; for MIC: Pseudomonas aeruginosa, SR24, read-out: Minimum Inhibitory Concentration (MIC) P. aeruginosa SR24
smiles,measurement,setting,value
CC(C)(O/N=C(\C(=O)N[C@@H]1C(=O)N2C(c3nnn[nH]3)=C(C[n+]3cccc4c3CCCN4C(=O)c3ccc(O)c(O)c3Cl)CS[C@H]12)c1csc(N)n1)C(=O)[O-] [Compound I-75],MIC,[1],0.25 µg/mL
same,MIC,[2],0.063 µg/mL
same,MIC,[3],0.5 µg/mL
same,MIC,[4],0.125 µg/mL
same,MIC,[5],0.063 µg/mL
same,MIC,[6],1 µg/mL
same,MIC,[7],0.063 µg/mL
CC(C)(O/N=C(\C(=O)N[C@@H]1C(=O)N2C(c3nnn[n-]3)=C(Cn3cc4ccc(CNC(=O)c5ccc(O)c(O)c5Cl)c[n+]4c3)CS[C@H]12)c1csc(N)n1)C(=O)[O-].[Na+] [Compound I-58],MIC,[1],0.5 µg/mL
same,MIC,[2],≤ 0.031 µg/mL
same,MIC,[3],0.5 µg/mL
same,MIC,[4],0.25 µg/mL
same,MIC,[5],0.5 µg/mL
same,MIC,[6],1 µg/mL
same,MIC,[7],0.125 µg/mL
CC(C)(O/N=C(\C(=O)N[C@@H]1C(=O)N2C(c3nnn[n-]3)=C(C[n+]3ccc(NC(=O)c4ccc(O)c(O)c4Cl)cc3)CS[C@H]12)c1csc(N)n1)C(=O)[O-].[Na+] [Compound I-15],MIC,[1],0.5 µg/mL
same,MIC,[2],≤ 0.031 µg/mL
same,MIC,[3],0.25 µg/mL
same,MIC,[4],0.063 µg/mL
same,MIC,[5],≤ 0.031 µg/mL
same,MIC,[6],≤ 0.031 µg/mL
same,MIC,[7],0.125 µg/mL
Cc1c(O)c(O)cc2cc[n+](CC3=C(c4nnn[n-]4)N4C(=O)[C@@H](NC(=O)/C(=N\OC(C)(C)C(=O)[O-])c5csc(N)n5)[C@H]4SC3)cc12.[Na+] [Compound I-22],MIC,[1],0.25 µg/mL
same,MIC,[2],≤ 0.031 µg/mL
same,MIC,[3],0.125 µg/mL
same,MIC,[4],0.063 µg/mL
same,MIC,[5],0.25 µg/mL
same,MIC,[6],0.125 µg/mL
same,MIC,[7],≤ 0.031 µg/mL
CC(C)(O/N=C(\C(=O)N[C@@H]1C(=O)N2C(c3nn[n-]n3)=C(C[n+]3ccc(NCc4ccc(O)c(O)c4Cl)cc3)CS[C@H]12)c1csc(N)n1)C(=O)[O-].[Na+] [Compound I-49],MIC,[1],1 µg/mL
same,MIC,[2],≤ 0.031 µg/mL
same,MIC,[3],0.5 µg/mL
same,MIC,[4],0.25 µg/mL
same,MIC,[5],0.25 µg/mL
same,MIC,[6],1 µg/mL
same,MIC,[7],0.063 µg/mL
CC(C)(O/N=C(\C(=O)N[C@@H]1C(=O)N2C(c3nnn[n-]3)=C(C[n+]3cccc(NC(=O)c4ccc(O)c(O)c4Cl)c3)CS[C@H]12)c1csc(N)n1)C(=O)[O-].[Na+] [Compound I-73],MIC,[1],0.25 µg/mL
same,MIC,[2],≤ 0.031 µg/mL
same,MIC,[3],0.125 µg/mL
same,MIC,[4],0.063 µg/mL
same,MIC,[5],0.25 µg/mL
same,MIC,[6],0.25 µg/mL
same,MIC,[7],0.125 µg/mL
CC(C)(O/N=C(\C(=O)N[C@@H]1C(=O)N2C(c3nnn[nH]3)=C(C[N+]3(CCNC(=O)c4cc(Cl)c(O)c(O)c4Cl)CCCC3)CS[C@H]12)c1csc(N)n1)C(=O)[O-] [Compound I-53],MIC,[1],0.5 µg/mL
same,MIC,[2],≤ 0.031 µg/mL
same,MIC,[3],0.125 µg/mL
same,MIC,[4],0.063 µg/mL
same,MIC,[5],0.063 µg/mL
same,MIC,[6],1 µg/mL
same,MIC,[7],0.25 µg/mL
CC(C)(O/N=C(\C(=O)N[C@@H]1C(=O)N2C(c3nnn[n-]3)=C(C[N+]3(CCNC(=O)c4ccc(O)c(O)c4Cl)CCCC3)CS[C@H]12)c1nc(N)sc1Cl)C(=O)[O-].[Na+] [Compound I-88],MIC,[1],0.5 µg/mL
same,MIC,[2],0.063 µg/mL
same,MIC,[3],0.125 µg/mL
same,MIC,[4],0.063 µg/mL
same,MIC,[5],≤ 0.031 µg/mL
same,MIC,[6],0.5 µg/mL
same,MIC,[7],0.063 µg/mL
CC(C)(O/N=C(\C(=O)N[C@@H]1C(=O)N2C(c3nnn[nH]3)=C(C[N+]3(CCNC(=O)c4cc(O)c(O)c(F)c4)CCCC3)CS[C@H]12)c1csc(N)n1)C(=O)[O-] [Compound I-56],MIC,[1],0.5 µg/mL
same,MIC,[2],≤ 0.031 µg/mL
same,MIC,[3],0.25 µg/mL
same,MIC,[4],0.125 µg/mL
same,MIC,[5],0.25 µg/mL
same,MIC,[6],0.5 µg/mL
same,MIC,[7],≤ 0.031 µg/mL
Nc1nc(C(=NOC(CC(=O)[O-])C(=O)[O-])C(=O)NC2C(=O)N3C(c4nnn[n-]4)=C(C[N+]4(CCNC(=O)c5ccc(O)c(O)c5Cl)CCCC4)CSC23)c(Cl)s1.[Na+].[Na+] (stereo not drawn) [Compound I-91],Minimum Inhibitory Concentration (MIC) P. aeruginosa SR27060,[1],0.125 µg/mL
same,Minimum Inhibitory Concentration (MIC) K. pneumoniae ATCCBAA-1705,[2],≦0.031 μg/ml
same,Minimum Inhibitory Concentration (MIC) E. coli ATCC BAA-200,[3],0.25 µg/mL
same,Minimum Inhibitory Concentration (MIC) E. coli ATCC BAA-199,[4],0.125 µg/mL
same,Minimum Inhibitory Concentration (MIC) P. aeruginosa SR24837,[5],0.063 µg/mL
same,Minimum Inhibitory Concentration (MIC) A. baumannii SR27323,[6],0.5 µg/mL
same,Minimum Inhibitory Concentration (MIC) P. aeruginosa SR24,[7],0.063 µg/mL
CC(C)(O/N=C(\C(=O)N[C@@H]1C(=O)N2C(c3nnn[n-]3)=C(C[N+](C)(C)CCNC(=O)c3ccc(O)c(O)c3Cl)CS[C@H]12)c1csc(N)n1)C(=O)[O-].[Na+] [Compound I-11],MIC,[1],1 µg/mL
same,MIC,[2],≤ 0.031 µg/mL
same,MIC,[3],0.5 µg/mL
same,MIC,[4],0.125 µg/mL
same,MIC,[5],0.063 µg/mL
same,MIC,[6],0.25 µg/mL
same,MIC,[7],0.25 µg/mL
CC(C)(O/N=C(\C(=O)N[C@@H]1C(=O)N2C(c3nn[n-]n3)=C(C[N+]3(Cc4nnc(-c5ccc(O)c(O)c5Cl)o4)CCCC3)CS[C@H]12)c1csc(N)n1)C(=O)[O-].[Na+] [Compound I-45],MIC,[1],0.5 µg/mL
same,MIC,[2],≤ 0.031 µg/mL
same,MIC,[3],0.25 µg/mL
same,MIC,[4],0.125 µg/mL
same,MIC,[5],0.5 µg/mL
same,MIC,[6],0.25 µg/mL
same,MIC,[7],0.125 µg/mL
CC(C)(O/N=C(\C(=O)N[C@@H]1C(=O)N2C(c3nnn[n-]3)=C(C[N+]34CCC[C@H]3CN(C(=O)c3cc(O)c(O)c(F)c3)CC4)CS[C@H]12)c1csc(N)n1)C(=O)[O-].[Na+] (stereo partly drawn) [Compound I-5],MIC,[1],0.5 µg/mL
same,MIC,[2],0.063 µg/mL
same,MIC,[3],1 µg/mL
same,MIC,[4],0.5 µg/mL
same,MIC,[5],2 µg/mL
same,MIC,[6],0.125 µg/mL
same,MIC,[7],0.25 µg/mL
CC(C)(O/N=C(\C(=O)N[C@@H]1C(=O)N2C(c3nn[n-]n3)=C(C[n+]3ccc(C(=O)c4ccc(O)c(O)c4Cl)cc3)CS[C@H]12)c1csc(N)n1)C(=O)[O-].[Na+] [Compound I-48],MIC,[1],0.25 µg/mL
same,MIC,[2],≤ 0.031 µg/mL
same,MIC,[3],0.25 µg/mL
same,MIC,[4],0.25 µg/mL
same,MIC,[5],0.125 µg/mL
same,MIC,[6],0.5 µg/mL
same,MIC,[7],≤ 0.031 µg/mL
CC(C)(O/N=C(\C(=O)N[C@@H]1C(=O)N2C(c3nnn[n-]3)=C(C[N+]3(CCNC(=O)c4cc(O)c(O)c(Cl)c4)CCCC3)CS[C@H]12)c1csc(N)n1)C(=O)[O-].[Na+] [Compound I-52],MIC,[1],1 µg/mL
same,MIC,[2],≤ 0.031 µg/mL
same,MIC,[3],0.5 µg/mL
same,MIC,[4],0.125 µg/mL
same,MIC,[5],2 µg/mL
same,MIC,[6],1 µg/mL
same,MIC,[7],0.25 µg/mL
CC(C)(O/N=C(\C(=O)N[C@@H]1C(=O)N2C(c3nnn[n-]3)=C(C[N+]3(CCNC(=O)c4ccc(O)c(O)c4Cl)CCCC3)C[S+]([O-])[C@H]12)c1csc(N)n1)C(=O)[O-].[Na+] (stereo partly drawn) [Compound I-7],MIC,[1],4 µg/mL
same,MIC,[2],0.063 µg/mL
same,MIC,[3],0.5 µg/mL
same,MIC,[4],0.25 µg/mL
same,MIC,[5],1 µg/mL
same,MIC,[6],16 µg/mL
same,MIC,[7],2 µg/mL
CC(C)(O/N=C(\C(=O)N[C@@H]1C(=O)N2C(c3nnn[n-]3)=C(C[n+]3ccc(-c4ccc(O)c(O)c4Cl)cc3)CS[C@H]12)c1csc(N)n1)C(=O)[O-].[Na+] [Compound I-79],MIC,[1],0.25 µg/mL
same,MIC,[2],≤ 0.031 µg/mL
same,MIC,[3],1 µg/mL
same,MIC,[4],0.5 µg/mL
same,MIC,[5],0.063 µg/mL
same,MIC,[6],0.125 µg/mL
same,MIC,[7],≤ 0.031 µg/mL
CC(C)(O/N=C(\C(=O)N[C@@H]1C(=O)N2C(c3nnn[n-]3)=C(C[N+]34CCCC3(CNC(=O)c3ccc(O)c(O)c3Cl)CCC4)CS[C@H]12)c1cnc(N)s1)C(=O)[O-].[Na+] (stereo partly drawn) [Compound I-80],MIC,[1],0.25 µg/mL
same,MIC,[2],≤ 0.031 µg/mL
same,MIC,[3],1 µg/mL
same,MIC,[4],0.5 µg/mL
same,MIC,[5],0.125 µg/mL
same,MIC,[6],2 µg/mL
same,MIC,[7],≤ 0.031 µg/mL
